# Measurements published in the CheMixHub viscosity set.
# ± gives the uncertainty stated by the source.
# Assay: xn = mol fraction of the nth substance listed
smiles,measurement,setting,value
CCCCCCCC + CC(C)O,viscosity,"293.15 K, 101.32 kPa, x2 = 0.0518",0.539 ± 0.008 mPa·s
same,viscosity,"293.15 K, 101.32 kPa, x2 = 0.0896",0.542 ± 0.008 mPa·s
same,viscosity,"293.15 K, 101.32 kPa, x2 = 0.212",0.562 ± 0.008 mPa·s
same,viscosity,"293.15 K, 101.32 kPa, x2 = 0.282",0.58 ± 0.008 mPa·s
same,viscosity,"293.15 K, 101.32 kPa, x2 = 0.4103",0.644 ± 0.009 mPa·s
same,viscosity,"293.15 K, 101.32 kPa, x2 = 0.6027",0.83 ± 0.011 mPa·s
same,viscosity,"293.15 K, 101.32 kPa, x2 = 0.6988",0.985 ± 0.013 mPa·s
same,viscosity,"293.15 K, 101.32 kPa, x2 = 0.7988",1.225 ± 0.017 mPa·s
same,viscosity,"293.15 K, 101.32 kPa, x2 = 0.9007",1.624 ± 0.022 mPa·s
same,viscosity,"293.15 K, 101.32 kPa, x2 = 0.9496",1.961 ± 0.026 mPa·s
same,viscosity,"298.15 K, 101 kPa, x2 = 0.0569",0.515 ± 0.005 mPa·s
same,viscosity,"298.15 K, 101 kPa, x2 = 0.1093",0.518 ± 0.005 mPa·s
same,viscosity,"298.15 K, 101 kPa, x2 = 0.1441",0.524 ± 0.005 mPa·s
same,viscosity,"298.15 K, 101 kPa, x2 = 0.2343",0.542 ± 0.005 mPa·s
same,viscosity,"298.15 K, 101 kPa, x2 = 0.3228",0.568 ± 0.005 mPa·s
same,viscosity,"298.15 K, 101 kPa, x2 = 0.3517",0.579 ± 0.006 mPa·s
same,viscosity,"298.15 K, 101 kPa, x2 = 0.4196",0.611 ± 0.006 mPa·s
same,viscosity,"298.15 K, 101 kPa, x2 = 0.5016",0.665 ± 0.006 mPa·s
same,viscosity,"298.15 K, 101 kPa, x2 = 0.5603",0.717 ± 0.006 mPa·s
same,viscosity,"298.15 K, 101 kPa, x2 = 0.6122",0.773 ± 0.007 mPa·s
same,viscosity,"298.15 K, 101 kPa, x2 = 0.7012",0.9 ± 0.008 mPa·s
same,viscosity,"298.15 K, 101 kPa, x2 = 0.7937",1.088 ± 0.009 mPa·s
same,viscosity,"298.15 K, 101 kPa, x2 = 0.9122",1.496 ± 0.012 mPa·s
same,viscosity,"298.15 K, 101 kPa, x2 = 0.9475",1.68 ± 0.013 mPa·s
same,viscosity,"298.15 K, 101.32 kPa, x2 = 0.0518",0.507 ± 0.007 mPa·s
same,viscosity,"298.15 K, 101.32 kPa, x2 = 0.0896",0.51 ± 0.007 mPa·s
same,viscosity,"298.15 K, 101.32 kPa, x2 = 0.212",0.526 ± 0.007 mPa·s
same,viscosity,"298.15 K, 101.32 kPa, x2 = 0.282",0.542 ± 0.008 mPa·s
same,viscosity,"298.15 K, 101.32 kPa, x2 = 0.4103",0.596 ± 0.008 mPa·s
same,viscosity,"298.15 K, 101.32 kPa, x2 = 0.6027",0.752 ± 0.01 mPa·s
same,viscosity,"298.15 K, 101.32 kPa, x2 = 0.6988",0.883 ± 0.012 mPa·s
same,viscosity,"298.15 K, 101.32 kPa, x2 = 0.7988",1.088 ± 0.014 mPa·s
same,viscosity,"298.15 K, 101.32 kPa, x2 = 0.9007",1.429 ± 0.019 mPa·s
same,viscosity,"298.15 K, 101.32 kPa, x2 = 0.9496",1.69 ± 0.022 mPa·s
same,viscosity,"303.15 K, 101.32 kPa, x2 = 0.0518",0.476 ± 0.007 mPa·s
same,viscosity,"303.15 K, 101.32 kPa, x2 = 0.0896",0.479 ± 0.007 mPa·s
same,viscosity,"303.15 K, 101.32 kPa, x2 = 0.212",0.494 ± 0.007 mPa·s
same,viscosity,"303.15 K, 101.32 kPa, x2 = 0.282",0.507 ± 0.007 mPa·s
same,viscosity,"303.15 K, 101.32 kPa, x2 = 0.4103",0.552 ± 0.008 mPa·s
same,viscosity,"303.15 K, 101.32 kPa, x2 = 0.6027",0.685 ± 0.009 mPa·s
same,viscosity,"303.15 K, 101.32 kPa, x2 = 0.6988",0.795 ± 0.011 mPa·s
same,viscosity,"303.15 K, 101.32 kPa, x2 = 0.7988",0.967 ± 0.013 mPa·s
same,viscosity,"303.15 K, 101.32 kPa, x2 = 0.9007",1.25 ± 0.016 mPa·s
same,viscosity,"303.15 K, 101.32 kPa, x2 = 0.9496",1.482 ± 0.019 mPa·s
same,viscosity,"308.15 K, 101 kPa, x2 = 0.0569",0.446 ± 0.005 mPa·s
same,viscosity,"308.15 K, 101 kPa, x2 = 0.1093",0.45 ± 0.005 mPa·s
same,viscosity,"308.15 K, 101 kPa, x2 = 0.1441",0.451 ± 0.005 mPa·s
same,viscosity,"308.15 K, 101 kPa, x2 = 0.2343",0.466 ± 0.005 mPa·s
same,viscosity,"308.15 K, 101 kPa, x2 = 0.3228",0.486 ± 0.005 mPa·s
same,viscosity,"308.15 K, 101 kPa, x2 = 0.3517",0.497 ± 0.005 mPa·s
same,viscosity,"308.15 K, 101 kPa, x2 = 0.4196",0.523 ± 0.005 mPa·s
same,viscosity,"308.15 K, 101 kPa, x2 = 0.5016",0.561 ± 0.005 mPa·s
same,viscosity,"308.15 K, 101 kPa, x2 = 0.5603",0.601 ± 0.006 mPa·s
same,viscosity,"308.15 K, 101 kPa, x2 = 0.6122",0.643 ± 0.006 mPa·s
same,viscosity,"308.15 K, 101 kPa, x2 = 0.7012",0.732 ± 0.006 mPa·s
same,viscosity,"308.15 K, 101 kPa, x2 = 0.7937",0.877 ± 0.007 mPa·s
same,viscosity,"308.15 K, 101 kPa, x2 = 0.9122",1.177 ± 0.009 mPa·s
same,viscosity,"308.15 K, 101 kPa, x2 = 0.9475",1.315 ± 0.01 mPa·s
CC(=O)OC1CCCCC1 + CCCCCCCCCCO,viscosity,"300 K, 101 kPa, x2 = 0.0746",2.01 ± 0.03 mPa·s
same,viscosity,"300 K, 101 kPa, x2 = 0.1275",2.11 ± 0.03 mPa·s
same,viscosity,"300 K, 101 kPa, x2 = 0.184",2.26 ± 0.03 mPa·s
same,viscosity,"300 K, 101 kPa, x2 = 0.2015",2.3 ± 0.03 mPa·s
same,viscosity,"300 K, 101 kPa, x2 = 0.2425",2.42 ± 0.04 mPa·s
same,viscosity,"300 K, 101 kPa, x2 = 0.2741",2.54 ± 0.04 mPa·s
same,viscosity,"300 K, 101 kPa, x2 = 0.4169",3.15 ± 0.04 mPa·s
same,viscosity,"300 K, 101 kPa, x2 = 0.4886",3.61 ± 0.05 mPa·s
same,viscosity,"300 K, 101 kPa, x2 = 0.6055",4.41 ± 0.06 mPa·s
same,viscosity,"300 K, 101 kPa, x2 = 0.6993",5.27 ± 0.07 mPa·s
same,viscosity,"300 K, 101 kPa, x2 = 0.8435",7.56 ± 0.09 mPa·s
same,viscosity,"300 K, 101 kPa, x2 = 0.8806",8.17 ± 0.1 mPa·s
same,viscosity,"310 K, 101 kPa, x2 = 0.0746",1.65 ± 0.03 mPa·s
same,viscosity,"310 K, 101 kPa, x2 = 0.1275",1.72 ± 0.03 mPa·s
same,viscosity,"310 K, 101 kPa, x2 = 0.184",1.82 ± 0.03 mPa·s
same,viscosity,"310 K, 101 kPa, x2 = 0.2015",1.86 ± 0.03 mPa·s
same,viscosity,"310 K, 101 kPa, x2 = 0.2425",1.95 ± 0.03 mPa·s
same,viscosity,"310 K, 101 kPa, x2 = 0.2741",2.03 ± 0.03 mPa·s
same,viscosity,"310 K, 101 kPa, x2 = 0.4169",2.47 ± 0.03 mPa·s
same,viscosity,"310 K, 101 kPa, x2 = 0.4886",2.81 ± 0.04 mPa·s
same,viscosity,"310 K, 101 kPa, x2 = 0.6055",3.35 ± 0.04 mPa·s
same,viscosity,"310 K, 101 kPa, x2 = 0.6993",3.95 ± 0.05 mPa·s
same,viscosity,"310 K, 101 kPa, x2 = 0.8435",5.49 ± 0.07 mPa·s
same,viscosity,"310 K, 101 kPa, x2 = 0.8806",5.85 ± 0.07 mPa·s
same,viscosity,"320 K, 101 kPa, x2 = 0.0746",1.38 ± 0.02 mPa·s
same,viscosity,"320 K, 101 kPa, x2 = 0.1275",1.43 ± 0.02 mPa·s
same,viscosity,"320 K, 101 kPa, x2 = 0.184",1.51 ± 0.02 mPa·s
same,viscosity,"320 K, 101 kPa, x2 = 0.2015",1.55 ± 0.02 mPa·s
same,viscosity,"320 K, 101 kPa, x2 = 0.2425",1.6 ± 0.02 mPa·s
same,viscosity,"320 K, 101 kPa, x2 = 0.2741",1.66 ± 0.02 mPa·s
same,viscosity,"320 K, 101 kPa, x2 = 0.4169",1.98 ± 0.03 mPa·s
same,viscosity,"320 K, 101 kPa, x2 = 0.4886",2.23 ± 0.03 mPa·s
same,viscosity,"320 K, 101 kPa, x2 = 0.6055",2.62 ± 0.03 mPa·s
same,viscosity,"320 K, 101 kPa, x2 = 0.6993",3.04 ± 0.04 mPa·s
same,viscosity,"320 K, 101 kPa, x2 = 0.8435",4.1 ± 0.05 mPa·s
same,viscosity,"320 K, 101 kPa, x2 = 0.8806",4.37 ± 0.05 mPa·s
